Test results from the supplement of paper PMC10307832.

Legend:
Experiment in all cases: relative viability (nuclei count vs DMSO), 5 days (fraction); higher = more cells survive
[1] = compound: CC1=CC(=CC=C1)NC2=NC(=CS2)C3=CC=NC=C3 + C[C@@H](Oc1cc(-c2cnn(C3CCNCC3)c2)cnc1N)c1c(Cl)ccc(F)c1Cl [Crizotinib] (partner 1 µM)
Procedure, shortened: (§1)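 Lung cancer cell lines in 1536-well plates got either a single drug or a fixed anchor-drug dose together with five library-drug doses (not always all listed) in √10 steps, by pin tool, on the day after seeding. Nuclei were counted after 5 days, and relative viability is the treated-to-vehicle ratio of nuclei counts. Values are medians of duplicate plates.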

[2] = compound: CC1=CC(=CC=C1)NC2=NC(=CS2)C3=CC=NC=C3 + CC(=O)c1c(C)c2cnc(Nc3ccc(N4CCNCC4)cn3)nc2n(C2CCCC2)c1=O [Palbociclib] (partner 0.5 µM)
Procedure, shortened: as §1

Masitinib + Vorinostat = compound: Cc1ccc(NC(=O)c2ccc(CN3CCN(C)CC3)cc2)cc1Nc1nc(-c2cccnc2)cs1 [Masitinib] + O=C(CCCCCCC(=O)Nc1ccccc1)NO [Vorinostat] (partner 1 µM)
Procedure, shortened: as §1

Masitinib + Bortezomib = compound: Cc1ccc(NC(=O)c2ccc(CN3CCN(C)CC3)cc2)cc1Nc1nc(-c2cccnc2)cs1 [Masitinib] + CC(C)C[C@H](NC(=O)[C@H](Cc1ccccc1)NC(=O)c1cnccn1)B(O)O [Bortezomib] (partner 0.002 µM)
Procedure, shortened: as §1

Cell Line | relative viability ([1]; first compound 0.08 µM) | relative viability ([1]; first compound 0.253 µM) | relative viability ([1]; first compound 0.8 µM) | relative viability ([1]; first compound 2.53 µM) | relative viability ([1]; first compound 8 µM) | relative viability ([2]; first compound 0.08 µM) | relative viability ([2]; first compound 0.253 µM) | relative viability ([2]; first compound 0.8 µM) | relative viability ([2]; first compound 2.53 µM) | relative viability ([2]; first compound 8 µM) | relative viability (Masitinib + Vorinostat; first compound 0.03162 µM) | relative viability (Masitinib + Vorinostat; first compound 0.1 µM) | relative viability (Masitinib + Vorinostat; first compound 0.3162 µM) | relative viability (Masitinib + Vorinostat; first compound 1 µM) | relative viability (Masitinib + Bortezomib; first compound 0.01 µM) | relative viability (Masitinib + Bortezomib; first compound 0.03162 µM) | relative viability (Masitinib + Bortezomib; first compound 0.1 µM) | relative viability (Masitinib + Bortezomib; first compound 0.3162 µM) | relative viability (Masitinib + Bortezomib; first compound 1 µM) | relative viability (Masitinib + Vorinostat; first compound 0.01 µM)
LCLC-103H | 0.918 | 0.924 | 0.902 | 1.02 | 0.888 | 0.402 | 0.445 | 0.477 | 0.406 | 0.507 | 0.778 | 0.666 | 0.778 | 0.761 | 0.821 | 1.23 | 1.02 | 0.948 | 0.994 | 
LOU-NH91 | 0.706 | 0.759 | 0.717 | 0.728 | 0.693 | 0.571 | 0.572 | 0.547 | 0.54 | 0.545 | 0.795 | 0.884 | 0.793 | 0.883 | 0.481 | 0.468 | 0.506 | 0.492 | 0.49 | 0.84
LU99A |  | 0.546 | 0.717 | 0.52 | 0.718 | 0.387 | 0.384 | 0.42 | 0.39 | 0.468 | 0.433 | 0.492 | 0.534 | 0.467 | 1.03 | 1.12 | 1.02 | 1.21 | 1.07 | 0.455
LXF-289 | 0.775 | 0.785 | 0.827 | 0.836 | 0.751 | 0.57 | 0.642 | 0.57 | 0.645 | 0.553 | 0.818 | 0.65 | 0.854 | 0.743 | 0.876 | 0.97 | 0.966 | 1.06 | 0.992 | 0.646
NCI-H23 | 0.417 | 0.469 | 0.474 | 0.531 | 0.526 | 0.37 | 0.459 | 0.518 | 0.479 | 0.524 | 0.462 | 0.547 | 0.454 | 0.501 | 1.06 | 1.05 | 1.14 | 1.03 | 1.11 | 0.564
NCI-H322M | 0.846 | 0.808 | 0.775 | 0.859 | 0.834 | 0.463 | 0.47 | 0.565 | 0.574 | 0.563 | 0.821 | 0.881 | 0.91 | 0.882 | 1.23 | 1.11 | 1.26 | 1.21 | 1.17 | 0.831
NCI-H441 | 0.751 | 0.831 | 0.791 | 0.69 | 0.663 | 0.214 | 0.205 | 0.261 | 0.224 | 0.184 | 0.75 | 1.12 | 1.01 | 0.894 | 0.777 | 0.451 | 0.658 | 0.673 | 0.448 | 0.856
NCI-H460 | 0.753 | 0.827 | 0.913 | 1 | 0.811 | 0.0801 | 0.0813 | 0.0708 | 0.0785 | 0.086 | 0.418 | 0.841 | 0.647 | 0.758 | 1.03 | 1 | 1.2 | 1.15 | 1.28 | 0.766
NCI-H520 | 0.741 | 0.9 | 0.81 | 0.839 | 0.939 | 0.217 | 0.234 | 0.239 | 0.261 | 0.291 | 0.703 | 0.755 | 0.932 | 0.687 | 0.598 |  | 0.629 | 0.686 | 0.774 | 0.796
NCI-H647 | 1.04 | 0.909 | 0.953 | 1.02 | 0.86 | 0.379 | 0.262 | 0.369 | 0.442 | 0.365 | 0.533 | 0.592 | 0.693 | 0.619 | 1.03 | 0.768 | 1.1 | 1.05 | 1.09 | 0.503
NCI-H650 | 0.683 | 0.724 | 0.615 |  | 0.914 | 0.256 | 0.339 | 0.322 | 0.342 | 0.371 | 0.527 | 0.415 | 0.484 | 0.404 | 0.82 | 0.565 | 0.95 | 1.08 | 0.635 | 0.458
NCI-H661 | 0.974 | 1 | 0.925 | 0.935 | 0.908 | 0.433 | 0.395 | 0.391 | 0.386 | 0.351 | 0.801 | 0.774 | 0.805 | 0.821 | 0.867 | 0.74 | 0.927 | 0.761 | 0.585 | 0.785
NCI-H727 | 0.621 | 0.737 | 0.922 | 0.759 | 0.575 | 0.725 |  | 0.541 |  | 0.695 | 1.36 | 1.38 | 0.988 | 1.09 | 0.846 | 0.847 | 1.02 | 1.04 | 0.744 | 1.13
NCI-H838 | 0.817 | 0.661 | 0.749 | 0.819 | 0.682 | 0.22 | 0.205 | 0.207 | 0.217 | 0.179 | 0.664 | 0.773 | 0.639 | 0.703 | 0.793 | 0.83 | 0.965 | 0.758 | 0.69 | 0.7
NCI-H1355 | 1.02 | 0.781 | 0.705 | 0.701 | 0.61 | 0.35 | 0.282 | 0.27 | 0.285 | 0.284 | 0.518 | 0.633 | 0.464 | 0.577 | 0.949 | 1.3 | 1.02 | 1.02 | 1.06 | 0.631
NCI-H1437 | 0.938 | 1.03 | 0.91 | 1.06 | 0.926 | 0.316 | 0.331 | 0.301 | 0.23 | 0.289 | 0.799 | 0.932 | 0.789 | 0.75 | 0.468 | 0.637 | 0.585 | 0.577 | 0.438 | 0.798
NCI-H1650 | 0.946 | 0.728 | 0.83 | 0.919 | 1.03 | 0.278 | 0.281 | 0.449 | 0.235 | 0.239 | 0.402 | 0.549 | 0.437 | 0.512 | 0.198 | 0.172 | 0.186 | 0.215 | 0.212 | 0.492
NCI-H1651 | 0.854 | 0.869 | 0.897 | 0.851 | 0.897 | 0.492 | 0.486 | 0.507 | 0.523 | 0.543 | 0.543 | 0.56 | 0.529 | 0.55 | 0.891 | 0.941 | 0.927 | 0.983 | 0.944 | 0.577
NCI-H1666 | 0.722 | 0.567 | 0.526 | 0.567 | 0.386 | 0.664 | 0.631 | 0.546 | 0.584 | 0.617 | 0.875 | 1.09 | 1.02 | 1.09 | 0.71 | 0.726 | 0.854 | 0.555 | 0.612 | 1.08
NCI-H1734 | 0.665 | 0.667 | 0.635 | 0.653 | 0.622 | 0.352 | 0.315 | 0.344 | 0.347 | 0.359 | 0.756 | 0.773 | 0.779 | 0.794 | 0.899 | 0.772 | 1.01 | 0.949 | 0.853 | 0.751
NCI-H1755 | 0.86 | 0.815 | 0.803 | 0.729 | 0.522 | 0.432 | 0.429 | 0.412 | 0.442 | 0.393 | 0.732 | 0.647 | 0.758 | 0.693 |  | 0.966 | 0.832 | 0.907 | 0.816 | 0.617
NCI-H1915 | 0.84 | 0.784 | 0.838 | 0.87 | 0.8 | 0.545 | 0.47 | 0.53 | 0.524 | 0.492 | 0.488 |  | 0.505 | 0.541 |  | 0.894 | 0.805 | 1.04 | 0.926 | 
NCI-H1975 | 0.819 | 0.737 | 0.862 | 0.758 | 0.722 | 0.497 | 0.416 | 0.51 | 0.374 | 0.241 | 0.736 | 0.724 | 0.716 | 0.711 | 0.378 | 0.319 | 0.388 | 0.319 | 0.373 | 0.693
NCI-H1993 | 0.847 | 0.706 | 0.853 | 0.91 | 0.946 | 0.594 | 0.604 | 0.476 | 0.554 | 0.533 | 0.527 | 0.943 | 0.723 | 0.762 | 1.01 |  | 1.21 | 1.03 | 1.03 | 0.727
NCI-H2009 | 0.917 | 0.97 | 1.01 | 0.939 | 0.89 | 0.251 | 0.309 | 0.28 | 0.279 | 0.23 | 0.772 | 0.69 | 0.654 | 0.602 | 0.666 | 1.1 | 0.887 | 0.894 | 0.939 | 0.664
NCI-H2023 | 0.603 | 0.525 | 0.507 | 0.758 | 0.37 | 0.408 | 0.428 | 0.424 | 0.355 | 0.112 | 0.583 | 0.66 | 0.611 | 0.721 | 0.734 | 0.967 | 0.79 | 0.862 | 0.879 | 0.493
NCI-H2085 | 0.64 | 0.891 | 0.918 | 0.877 | 0.627 | 0.464 | 0.463 | 0.475 | 0.47 | 0.349 | 0.829 | 0.67 | 0.701 | 0.822 | 0.87 | 0.99 | 1.03 | 1.27 | 1.06 | 0.7
